The target of the assay is human NK-3 receptor (Homo sapiens (Human), UniProt P29371). Briefly: 3H-SB222200 binding competition assay with human NK-3 receptor. The following applies: 3H-SB222200 displacement, CHO cell membranes expressing human NK3 receptor; read-out: Ki range. The procedure:
The affinity of compounds of the invention for the tachykinin receptors was determined by measuring the ability of the compounds of the invention to displace a radiolabeled ligand from its specifics binding site.
^3H-SB222200 Binding Competition Assay with Human NK-3 Receptor
The ability of the compounds of the invention to inhibit the binding of the NK-3 receptor selective antagonist SB222200 was assessed by an in vitro radioligand binding assay. Membranes were prepared from Chinese hamster ovary recombinant cells which express the human NK3 receptor. The membranes were incubated with 5 nM ^3H-SB222200_(ARC) in a HEPES 25 mM/NaCl 0.1M/CaCl2 1 mM/MgCl2 5 Mm/BSA 0.5%/Saponin 10 μg/ml buffer at pH 7.4 and various concentrations of the compounds of the invention. The amount of tritiated SB222200 bound to the receptor was determined after filtration by the quantification of membrane associated radioactivity using the TopCount-NXT reader (Packard). […] In Table 3 biological results obtained using the ^3H-SB222200 binding competition assay with compounds of the invention are set out in tabulated form. In this table the calculated Ki is given. The Ki value obtained (in accordance with the protocol set forth above) is represented as follows: “+++” means Ki<500 nM; “++” means 500 nM≤Ki≤1 μM; “+” means 1 μM<Ki≤5 μM; “#” means Ki>5 μM.
human NK-3 receptor, sequence (P29371 whole entry): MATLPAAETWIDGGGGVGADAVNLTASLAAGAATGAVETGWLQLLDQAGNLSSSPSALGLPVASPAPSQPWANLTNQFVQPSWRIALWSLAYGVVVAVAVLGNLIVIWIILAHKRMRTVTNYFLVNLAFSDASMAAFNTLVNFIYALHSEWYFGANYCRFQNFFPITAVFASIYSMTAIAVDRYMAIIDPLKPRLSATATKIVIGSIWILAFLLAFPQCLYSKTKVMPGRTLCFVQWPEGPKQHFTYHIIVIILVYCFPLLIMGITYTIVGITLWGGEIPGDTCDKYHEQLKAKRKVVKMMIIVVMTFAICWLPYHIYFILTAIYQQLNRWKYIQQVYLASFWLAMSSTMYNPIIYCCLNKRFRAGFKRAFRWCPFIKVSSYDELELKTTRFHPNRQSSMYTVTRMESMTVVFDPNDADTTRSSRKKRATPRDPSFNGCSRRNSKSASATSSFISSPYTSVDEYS
One may read the Ki as a dissociation constant, usually derived from enzyme kinetics or from competition with a known ligand. With `O=C(c1ccc(F)cc1)N1CCn2c(nnc2-c2csc(Cc3ccc(Cl)cc3)n2)C1` [Compound 188, (3-(2-(4-chlorobenzyl)thiazol-4-yl)-5,6-dihydro-[1,2,4]triazolo[4,3-a]pyrazin-7(8H)-yl)(4-fluorophenyl)methanone], the Ki lay within 500 to 1000 nM. For the compound `O=C(c1ccc(F)cc1)N1CCn2c(nnc2-c2ccc3cccc(F)c3n2)C1` [Compound 22, (4-fluorophenyl)(3-(8-fluoroquinolin-2-yl)-5,6-dihydro-[1,2,4]triazolo[4,3-a]pyrazin-7(8H)-yl)methanone], the Ki was 500 to 1000 nM.

With `CC1c2nnc(-c3csc(-c4ccc(F)cc4)n3)n2CCN1C(=O)c1ccc(-c2cccs2)cc1` (stereo not shown) [Compound 78, (3-(2-(4-fluorophenyl)thiazol-4-yl)-8-methyl-5,6-dihydro-[1,2,4]triazolo[4,3-a]pyrazin-7(8H)-yl)(4-(thiophen-2-yl)phenyl)methanone], the Ki was under 500 nM. Turning to `O=C(c1ccc(-c2cccs2)cc1)N1CCn2c(nnc2-c2csc(-c3cnccn3)n2)C1` [Compound 235, (3-(2-(pyrazin-2-yl)thiazol-4-yl)-5,6-dihydro-[1,2,4]triazolo[4,3-a]pyrazin-7(8H)-yl)(4-(thiophen-2-yl)phenyl)methanone], the Ki was under 500 nM. Next, `CC1c2nnc(-c3ccc4ccccc4n3)n2CCN1C(=O)c1ccc(-c2cccs2)cc1` (stereo not shown) [Compound 65, (8-methyl-3-(quinolin-2-yl)-5,6-dihydro-[1,2,4]triazolo[4,3-a]pyrazin-7(8H)-yl)(4-(thiophen-2-yl)phenyl)methanone]: under 500 nM. Regarding `O=C(c1ccc(-c2cccs2)cc1)N1CCn2c(nnc2-c2nc(-c3ccccc3)ns2)C1` [Compound 211, (3-(3-phenyl-1,2,4-thiadiazol-5-yl)-5,6-dihydro-[1,2,4]triazolo[4,3-a]pyrazin-7(8H)-yl)(4-(thiophen-2-yl)phenyl)methanone], the Ki was under 500 nM. In the case of `C[C@@H]1c2nnc(-c3ccc4ccccc4n3)n2CCN1C(=O)c1ccc(F)cc1` [Compound 115, (R)-(4-fluorophenyl)(8-methyl-3-(quinolin-2-yl)-5,6-dihydro-[1,2,4]triazolo[4,3-a]pyrazin-7(8H)-yl)methanone] it was under 500 nM. Regarding `O=C(c1ccc(F)cc1)N1CCn2c(-c3csc(-c4ccccc4)n3)nnc2C1CCO` (stereo not shown) [Compound 51, (4-fluorophenyl)(8-(2-hydroxyethyl)-3-(2-phenylthiazol-4-yl)-5,6-dihydro-[1,2,4]triazolo[4,3-a]pyrazin-7(8H)-yl)methanone], the Ki is under 500 nM. For the compound `Cc1sccc1-c1ccc(C(=O)N2CCn3c(-c4csc(-c5ccc(F)cc5)n4)nnc3[C@H]2C)cc1` [Compound 234, (R)-(3-(2-(4-fluorophenyl)thiazol-4-yl)-8-methyl-5,6-dihydro-[1,2,4]triazolo[4,3-a]pyrazin-7(8H)-yl)(4-(2-methylthiophen-3-yl)phenyl)methanone], the Ki is under 500 nM.

Take `O=C(c1ccc(-c2ccc(F)cc2)cc1)N1CCn2c(nnc2-c2nc(-c3ccccc3)no2)C1` [Compound 223, (4′-fluoro-[1,1′-biphenyl]-4-yl)(3-(3-phenyl-1,2,4-oxadiazol-5-yl)-5,6-dihydro-[1,2,4]triazolo[4,3-a]pyrazin-7(8H)-yl)methanone]: the Ki is under 500 nM. As for `CC(C)Cc1nc(-c2nnc3n2CCN(C(=O)c2ccc(-c4cccs4)cc2)C3)cs1` [Compound 256, (3-(2-isobutylthiazol-4-yl)-5,6-dihydro-[1,2,4]triazolo[4,3-a]pyrazin-7(8H)-yl)(4-(thiophen-2-yl)phenyl)methanone], the Ki was under 500 nM. In the case of `CC1(C)c2nnc(-c3csc(-c4ccccc4)n3)n2CCN1C(=O)c1ccc(F)cc1` [Compound 60, (8,8-dimethyl-3-(2-phenylthiazol-4-yl)-5,6-dihydro-[1,2,4]triazolo[4,3-a]pyrazin-7(8H)-yl)(4-fluorophenyl)methanone] it was under 500 nM.

Take `CC1c2nnc(-c3csc(-c4ccc(F)cc4F)n3)n2CCN1C(=O)c1ccc(-c2cccs2)cc1` (stereo not shown) [Compound 80, (3-(2-(2,4-difluorophenyl)thiazol-4-yl)-8-methyl-5,6-dihydro-[1,2,4]triazolo[4,3-a]pyrazin-7(8H)-yl)(4-(thiophen-2-yl)phenyl)methanone]: the Ki is under 500 nM.

As for `CC1c2nnc(-c3csc(-c4ccc(F)cc4)n3)n2CCN1C(=O)c1ccc(-c2ccccc2)cc1` (stereo not shown) [Compound 76, [1,1′-biphenyl]-4-yl(3-(2-(4-fluorophenyl)thiazol-4-yl)-8-methyl-5,6-dihydro-[1,2,4]triazolo[4,3-a]pyrazin-7(8H)-yl)methanone], the Ki is under 500 nM. Take `O=C(c1cnc(-c2ccccc2)nc1)N1CCn2c(nnc2-c2ccc3ccccc3n2)C1` [Compound 92, (2-phenylpyrimidin-5-yl)(3-(quinolin-2-yl)-5,6-dihydro-[1,2,4]triazolo[4,3-a]pyrazin-7(8H)-yl)methanone]: the Ki lay within 1000 to 5000 nM. In the case of `O=C(c1ccc(F)cc1)N1CCn2c(nnc2-c2ccccn2)C1` [Compound 1, (4-fluorophenyl)(3-(pyridin-2-yl)-5,6-dihydro-[1,2,4]triazolo[4,3-a]pyrazin-7(8H)-yl)methanone] it was 1000 to 5000 nM; in that of `O=C(c1ccc(F)cc1)N1CCn2c(nnc2-c2csc(-c3cccc(C(F)(F)F)c3)n2)C1` [Compound 28, (4-fluorophenyl)(3-(2-(3-(trifluoromethyl)phenyl)thiazol-4-yl)-5,6-dihydro-[1,2,4]triazolo[4,3-a]pyrazin-7(8H)-yl)methanone], under 500 nM. In the case of `CC1c2nnc(-c3csc(-c4ccc(F)cc4)n3)n2CCN1C(=O)c1ccc(C#N)cc1` (stereo not shown) [Compound 216, 4-(3-(2-(4-fluorophenyl)thiazol-4-yl)-8-methyl-5,6,7,8-tetrahydro-[1,2,4]triazolo[4,3-a]pyrazine-7-carbonyl)benzonitrile], the Ki was under 500 nM.

As for `O=C(c1cc(-c2ccc(Cl)cc2)n[nH]1)N1CCn2c(nnc2-c2ccccn2)C1` [Compound 3, (3-(4-chlorophenyl)-1H-pyrazol-5-yl)(3-(pyridin-2-yl)-5,6-dihydro-[1,2,4]triazolo[4,3-a]pyrazin-7(8H)-yl)methanone], the Ki is 1000 to 5000 nM. In the case of `O=C(c1ccc(-c2ccccc2)cc1)N1CCn2c(nnc2-c2nc(-c3ccc(F)cc3)no2)C1` [Compound 204, [1,1′-biphenyl]-4-yl(3-(3-(4-fluorophenyl)-1,2,4-oxadiazol-5-yl)-5,6-dihydro-[1,2,4]triazolo[4,3-a]pyrazin-7(8H)-yl)methanone], the Ki was under 500 nM. For `Cc1ccc(C(=O)N2CCn3c(nnc3-c3ccccn3)C2)cc1` [Compound 232, (3-(pyridin-2-yl)-5,6-dihydro-[1,2,4]triazolo[4,3-a]pyrazin-7(8H)-yl)(p-tolyl)methanone], the Ki was 1000 to 5000 nM.

For the compound `O=C(c1ccc(-c2cccs2)cc1)N1CCn2c(nnc2-c2nc(-c3ccccc3)no2)C1` [Compound 174, (3-(3-phenyl-1,2,4-oxadiazol-5-yl)-5,6-dihydro-[1,2,4]triazolo[4,3-a]pyrazin-7(8H)-yl)(4-(thiophen-2-yl)phenyl)methanone], the Ki is under 500 nM. `CC1c2nnc(-c3nc(-c4ccc(F)cc4)no3)n2CCN1C(=O)c1ccc(-c2cccs2)cc1` (stereo not shown) [Compound 209, (3-(3-(4-fluorophenyl)-1,2,4-oxadiazol-5-yl)-8-methyl-5,6-dihydro-[1,2,4]triazolo[4,3-a]pyrazin-7(8H)-yl)(4-(thiophen-2-yl)phenyl)methanone]: the Ki was under 500 nM. On to `O=C(c1ccc(F)cc1)N1CCn2c(nnc2-c2cccc(N3CCCC3)n2)C1` [Compound 37, (4-fluorophenyl)(3-(6-(pyrrolidin-1-yl)pyridin-2-yl)-5,6-dihydro-[1,2,4]triazolo[4,3-a]pyrazin-7(8H)-yl)methanone], for which the Ki is under 500 nM.

Regarding `COc1ccccc1-c1nc(-c2nnc3n2CCN(C(=O)c2ccc(F)cc2)C3)cs1` [Compound 201, (4-fluorophenyl)(3-(2-(2-methoxyphenyl)thiazol-4-yl)-5,6-dihydro-[1,2,4]triazolo[4,3-a]pyrazin-7(8H)-yl)methanone], the Ki lay within 1000 to 5000 nM.

Consider `O=C(c1ccc(F)cc1)N1CCn2c(nnc2-c2ccc3cccc(Cl)c3n2)C1` [Compound 23, (3-(8-chloroquinolin-2-yl)-5,6-dihydro-[1,2,4]triazolo[4,3-a]pyrazin-7(8H)-yl)(4-fluorophenyl)methanone], for which the Ki was in the range of 500 to 1000 nM.

`Cc1nc(-c2ccccc2)sc1-c1nnc2n1CCN(C(=O)c1ccc(-c3ccccc3)cc1)C2C` (stereo not shown) [Compound 72, [1,1′-biphenyl]-4-yl(8-methyl-3-(4-methyl-2-phenylthiazol-5-yl)-5,6-dihydro-[1,2,4]triazolo[4,3-a]pyrazin-7(8H)-yl)methanone]: the Ki was under 500 nM. Next, `C[C@H]1c2nnc(-c3csc(N4CCOCC4)n3)n2CCN1C(=O)c1ccc(-c2ccc(F)cc2)cc1` [Compound 161, (S)-(4′-fluoro-[1,1′-biphenyl]-4-yl)(8-methyl-3-(2-morpholinothiazol-4-yl)-5,6-dihydro-[1,2,4]triazolo[4,3-a]pyrazin-7(8H)-yl)methanone]: 1000 to 5000 nM.
